Assay results reported in patent US5763433A, “Pharmaceutical compositions containing 3-beta-hydroxylated 6,7-substituted steroid derivatives, and use thereof” (Conservatoire National des Arts et Metiers, priority 1992, dated 1998).

Experiments:
anti-lysozyme IgG = test: Immunoenzymatic measurement of anti-lysozyme IgG in serum of mice immunized against lysozyme; type: in vivo, C57BL/6 mice; details: for Optical densities +/- SD, anti-lysozyme IgG, 1/180 serial dilution: serum 1/180; for Optical densities +/- SD, anti-lysozyme IgG, 1/180 serial dilution / Optical densities +/- SD, anti-lysozyme IgG, 1/540 serial dilution / Optical densities +/- SD, anti-lysozyme IgG, first serial dilution: s.c., mean of 5 mice; for Optical densities +/- SD, anti-lysozyme IgG, 1/180 serial dilution / Optical densities +/- SD, anti-lysozyme IgG, 1/540 serial dilution: doses and timing as E1; for Optical densities +/- SD, anti-lysozyme IgG, 1/540 serial dilution: serum 1/540; for Optical densities +/- SD, anti-lysozyme IgG, first serial dilution: serum dilution not given, PREG 0,5 g/kg, DHEA 1,0 g/kg, ADIOL 125 mg/kg 1 hour before lysozyme, 7-hydroxy-PREG and 7-hydroxy-DHEA 6,25 mg/kg, 7β-hydroxy-DHEA 50,0 mg/kg, 7- and 7β-hydroxy-ADIOL 25,0 mg/kg with lysozyme; for Effect on serum anti-lysozyme IgG (in words): steroid administered s.c. simultaneously with lysozyme
Procedure: The immunity effector effect was tested by subcutaneous injection concomitantly with that of an antigen and the 7-alpha- or 7-beta-hydroxylated derivative into C57BL/6 mice according to a standard immunization protocol (Methods in Enzymology (1980), vol. 70).
The effect of the compound as cellular immunity effector is measured by the quantity of circulating IgG directed against the antigen 21 days after the injection and after a booster injection 14 days layer.
Thirty five groups of five 6-weeks old C57BL/6 mice are given a subcutaneous injection of 200 ug of hen egg white lysozyme on days one and fourteen of the immunization protocol. Solutions of DHEA (Sigma D-4500) in dimethyl sulfoxide (DMSO) are injected in the same manner at variable times before the first injection of lysozyme. Amounts ranging from 0.25 and 2 g/kg are used. Ten other groups of 5 mice are given a subcutaneous injection of 6.25 to 50 mg/kg of 7-alpha-hydroxy-DHEA or 7-beta-hydroxy-DHEA dissolved in DMSO at the same time as the first lysozyme injection. Two groups receive only DMSO with lysozyme (controls). The blanks correspond to one group of 5 mice and are not given an injection.
Three weeks after the first injections the animals, then aged 9 weeks, are decapitated. The blood of each animal is collected and the presence of anti-lysozyme G immunoglobulins (IgG) is measured in serial dilutions of the sera by an immunoenzymatic titration using goat anti-mouse (Fc) IgG immunoglobulin labelled with peroxidase.
A group of 5 mice is given the subcutaneous injection of 125 mg/kg of 5-androstene-3-beta, 17-beta-diol (ADIOL) one hour prior to the first injection of lysozyme, and two groups of 5 mice are treated with 25 mg/kg of 7-alpha-hydroxy-ADIOL or 7-beta-hydroxy-ADIOL at the time of the first lysozyme injection.
DHEA or PREG or ADIOL is injected subcutaneously 1 hour before the first lysozyme injection. The 7-hydroxylated derivatives are administered simultaneously with the lysozyme injection. The immunoenzymatic measurement of the anti-lysozyme IgGs in the serial dilutions of the sera of each animal makes use of goat anti-mouse (Fc) IgG immunoglobulin, labelled with peroxidase in 96-well plates treated with lysozyme. The mean value of the optical densities measured in each group of 5 mice is calculated as well as the standard deviation (SD).

[1] = target: T1, nuclear binding of tritiated dexamethazone (glucocorticoid receptors) (Mus musculus, UniProt P06537); test: Displacement of the nuclear binding of tritiated dexamethazone in isolated liver, brain, thymus and spleen cells; design: species or system C57BL/6 mouse
T1 construct: The liver, brain, spleen and thymus are excised and the cells of each organ are recovered; from tissue; host or cells: isolated cells of liver, brain, spleen and thymus of metyrapone-treated C57BL/6 mice
T1 sequence (P06537 1-792): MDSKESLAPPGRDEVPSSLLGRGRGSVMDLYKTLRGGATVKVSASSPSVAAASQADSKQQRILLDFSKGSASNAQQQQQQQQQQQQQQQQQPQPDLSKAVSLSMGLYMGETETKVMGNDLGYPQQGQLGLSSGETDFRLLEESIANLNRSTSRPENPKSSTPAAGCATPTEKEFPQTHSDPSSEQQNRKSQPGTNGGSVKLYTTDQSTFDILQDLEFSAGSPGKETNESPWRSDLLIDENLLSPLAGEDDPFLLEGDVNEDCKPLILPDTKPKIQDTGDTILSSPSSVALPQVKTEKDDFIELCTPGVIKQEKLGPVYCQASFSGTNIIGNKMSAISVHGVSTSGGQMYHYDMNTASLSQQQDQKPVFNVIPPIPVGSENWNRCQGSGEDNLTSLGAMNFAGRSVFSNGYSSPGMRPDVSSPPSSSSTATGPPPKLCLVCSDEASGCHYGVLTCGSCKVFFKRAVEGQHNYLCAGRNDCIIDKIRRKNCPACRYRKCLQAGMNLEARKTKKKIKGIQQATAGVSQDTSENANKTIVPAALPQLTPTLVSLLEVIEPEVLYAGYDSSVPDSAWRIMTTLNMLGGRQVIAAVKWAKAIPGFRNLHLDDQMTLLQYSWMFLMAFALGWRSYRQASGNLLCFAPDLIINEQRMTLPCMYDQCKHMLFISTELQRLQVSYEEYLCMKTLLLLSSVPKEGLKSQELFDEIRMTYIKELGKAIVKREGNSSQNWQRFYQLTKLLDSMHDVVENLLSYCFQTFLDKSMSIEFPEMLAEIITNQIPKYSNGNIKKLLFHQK
Procedure: The isolated hepatocytes are incubated for 1 hour at room temperature with increasing concentrations (2-80 nM) of ^3 H-dexamethazone (DEX*). […] The hepatocyte nuclei are then isolated and purified and the radioactivity corresponding to the DEX* still bound is measured and expressed in cpm/10 ug of DNA. The area under the curve DEX* corresponds to zero displacement of the radioactivity. The area under the curve DEX*/DEX which corresponds to the displacement of radioactivity by the same molecule is taken arbitrarily as 100. The areas under the curve obtained with the other steroids makes it possible to calculate by interpolation between the areas zero and 100 their displacement coefficients for the nuclear binding of DEX*.
The mice are anesthetized with ether and bled, then perfused intracardially with physiological serum containing collagenase B (0.03 g/100 ml) for 10 minutes. […] The quantities of cells obtained are estimated on the base of the measurement of the DNA contained in the preparations.
The nuclei are recovered and their radioactive content measured as described by the authors cited above.
The area under the curve of tritiated dexamethazone alone is measured and taken as zero. […] The displacement coefficients found for each of the other steroids are calculated by interpolation on this scale, each result being the mean of a triplicate determination.

[2] = test system: cytosolic or nuclear receptors specific for 7-alpha-hydroxy-DHEA; test: Search for cytosolic or nuclear receptors specific for 7-alpha-hydroxy-DHEA (studies not reported); type: binding; details: studies not reported here
AIDS = details: 400 to 2500 mg/day; cited from earlier work
[3] = cited from earlier work
[4] = test system: human viruses Edwards CVB4 or HSV2; details: s.c., of the order of 1 g/kg 4 hours prior to viral infection; also oral 0.4% in the diet for 16 weeks; cited from earlier work

SMILES | Optical densities +/- SD, anti-lysozyme IgG, 1/180 serial dilution (anti-lysozyme IgG) | Optical densities +/- SD, anti-lysozyme IgG, 1/540 serial dilution (anti-lysozyme IgG) | Optical densities +/- SD, anti-lysozyme IgG, first serial dilution (anti-lysozyme IgG) | Effect on serum anti-lysozyme IgG (in words) (anti-lysozyme IgG; listed as 7-alpha-OH-DHEA) | Effect on serum anti-lysozyme IgG (in words) (anti-lysozyme IgG; listed as 7-alpha-hydroxy-DHEA) | Displacement of tritiated dexamethazone from nuclear binding / anti-glucocorticoid action (in words) ([1]; 100-fold excess of steroid) | Displacement coefficient for nuclear binding of tritiated dexamethazone, Brain ([1]; brain cells, 100-fold excess of steroid, no competitor = zero, unlabelled dexamethazone = 100, mean of triplicate) | Displacement coefficient for nuclear binding of tritiated dexamethazone, Liver ([1]; liver cells, 100-fold excess of steroid over 2-80 nM 3H-dexamethazone, no competitor = zero, unlabelled dexamethazone = 100, mean of triplicate, 60 min) | Displacement coefficient for nuclear binding of tritiated dexamethazone, Spleen ([1]; spleen cells, 100-fold excess of steroid, no competitor = zero, unlabelled dexamethazone = 100, mean of triplicate) | Displacement coefficient for nuclear binding of tritiated dexamethazone, Thymus ([1]; thymus cells, 100-fold excess of steroid, no competitor = zero, unlabelled dexamethazone = 100, mean of triplicate) | Existence of specific cytosolic or nuclear receptors [2] | Effect on patients suffering from AIDS (AIDS) | Effect on serum concentrations of anti-lysozyme IgG (in words) (anti-lysozyme IgG; steroid administered s.c. at least one hour prior to the injection of lysozyme) | Solubility in aqueous solutions [3] | Survival of infected mice [4]
C[C@]12CC[C@H](O)CC1=C[C@@H](O)[C@@H]1[C@@H]2CC[C@]2(C)C(=O)CC[C@@H]12 [7-hydroxy-DHEA, 3-beta, 7-alpha-dihydroxy-androst-5-en-17-one] | 0,74 ± 0,21 | 0,43 ± 0,12 | 1,21 ± 0,37 | particularly marked effect of the low doses | much more active than its 7-beta epimer | more effective that the 7-beta epimer | 49 | 95 | 91 | 85 | do not exist | – | – | – | –
C[C@]12CC[C@H](O)CC1=CC[C@@H]1[C@@H]2CC[C@]2(C)C(=O)CC[C@@H]12 [DHEA, 3-beta-hydroxy-5-androsten-17-one, reference compound] | 0,26 ± 0,04 | 0,14 ± 0,02 | 0,40 ± 0,06 | – | – | – | – | – | – | – | – | positive effect | increase the serum concentrations of anti-lysozyme IgG | low solubility | enables the survival of mice infected by the human viruses Edwards CVB4 or HSV2 to be increased
